Experimental data taken from US20070099217A1, “Method for stress evaluation” (priority 2005, published 2007).

Legend:
[1] = tested on: Per1 gene; test: expression of clock genes in liver of mouse given corticosterone (quantitative real time RT-PCR); format: in vivo
Method: This example is intended to investigate the amount of expression of Per1 in a mouse which was given corticosterone.
A mouse was given a prescribed amount of corticosterone, and one hour later, it had its liver extracted. The collected liver was homogenized for quantitative real time RT-PCR in the same way as in Example 2, and the amount of expression of clock genes was determined.
The abscissa represents the dosage (mg/kg) of corticosterone per 1 kg of the mouse's weight. “PBS” denotes the control which was given a phosphate buffer solution in place of corticosterone. “fold induction” on the ordinate represents the amount of expression of Per1 gene (in terms of a relative value, with the value for PBS being 1).
The abscissa represents each clock gene. “fold induction” on the ordinate represents the amount of expression of each clock gene in terms of a relative value, with the value for PBS being 1.

[2] = target: glucocorticoid receptor (GR) joining to GRE resembling sequence of Per1 gene (Mus musculus, UniProt P06537); settings: NIH3T3 cells, 1 hr after treatment with dexamethazone, anti-GR antibody
Sequence of glucocorticoid receptor (GR) joining to GRE resembling sequence of Per1 gene (P06537 whole entry): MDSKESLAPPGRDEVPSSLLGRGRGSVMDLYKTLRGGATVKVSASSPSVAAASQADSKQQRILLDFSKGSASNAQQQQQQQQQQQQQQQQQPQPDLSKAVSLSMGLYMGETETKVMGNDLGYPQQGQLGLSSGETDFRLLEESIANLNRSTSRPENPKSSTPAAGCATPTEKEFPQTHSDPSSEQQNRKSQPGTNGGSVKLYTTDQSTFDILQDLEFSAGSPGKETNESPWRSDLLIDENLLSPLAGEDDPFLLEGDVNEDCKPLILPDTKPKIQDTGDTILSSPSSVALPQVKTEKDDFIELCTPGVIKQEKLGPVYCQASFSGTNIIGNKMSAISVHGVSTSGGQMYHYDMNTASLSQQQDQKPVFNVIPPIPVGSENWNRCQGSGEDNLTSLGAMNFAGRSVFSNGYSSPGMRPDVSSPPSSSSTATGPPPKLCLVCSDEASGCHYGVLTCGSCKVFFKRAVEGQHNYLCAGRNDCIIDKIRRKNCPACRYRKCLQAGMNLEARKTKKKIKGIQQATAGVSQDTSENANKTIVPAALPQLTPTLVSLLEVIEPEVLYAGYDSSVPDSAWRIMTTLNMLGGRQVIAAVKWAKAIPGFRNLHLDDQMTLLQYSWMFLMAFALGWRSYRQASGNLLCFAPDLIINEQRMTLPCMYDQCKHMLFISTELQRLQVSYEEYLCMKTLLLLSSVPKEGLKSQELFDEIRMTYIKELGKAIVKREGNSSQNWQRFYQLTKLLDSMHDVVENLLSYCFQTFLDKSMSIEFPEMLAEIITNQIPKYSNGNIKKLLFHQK
Method: First, NIH3T3 cells were treated with dexamethazone to induce the expression of mPer1 gene. The cells were given formaldehyde to fix the binding of protein and chromatin DNA. The chromatin DNA was fragmented by sonication and the resulting fragments underwent immunoprecipitation with anti-GR antibody. The resulting precipitates (as a composite of anti-GR antibody, GR, and chromatin DNA joining to GR) were recovered. The recovered precipitates were heated to remove the DNA-protein crosslinking. The desired sequence was amplified by PCR and the PCR product was identified by electrophoresis.
In other words, the primer was so designed as to specifically amplify the region near the two GRE resembling sequences.
In FIG. 5B, “IP: α-GR” indicates the desired sequence detected by semi-quantitative RT-PCR after immunoprecipitation by means of anti-GR antibody. “IP: αa-normal rabbit IgG” indicates the sequence (control) detected from immunoprecipitation by means of rabbit IgG. In addition, “input” indicates the desired sequence (control) detected by semi-quantitative RT-PCR without immunoprecipitation. “ChIP primer” in the lowermost row indicates the sequence of the primer used for semi-quantitative RT-PCR or the desired sequence which has been amplified. […]

[3] = tested on: promoter region of Per1 gene; test: luciferase assay of Per1 promoter constructs in NIH3T3 cells with dexamethazone; format: cell-based; settings: dexamethazone 0.1 μM, 36 hours after transfection
Method: The second step was luciferase assay to investigate what part of the promoter region of Per1 is associated with stress response.
Luciferase is an enzyme protein that catalyzes bioluminescence. It can be used to estimate the level at which the expression of a specific gene is induced in the following manner. First, a recombinant gene is prepared in which the promoter region of a specific gene is joined to a gene that codes luciferase. Second, the recombinant gene is incorporated into cultured cells. Third, the gene is allowed to express so that the luciferase is allowed to express. Fourth, the intensity of bioluminescence due to luciferase is determined to obtain the level at which luciferase expresses.
An experiment was carried out based on the foregoing principle. It involves preparation of several kinds of DNA differing in the length of the promoter region of Per1 and determination of the expression level of Per1 in the presence of dexamethazone. […] Incidentally, dexamethazone is synthetic glucocorticoid. It is known that the amount of glucocorticoid in blood increases when a living organism experiences stress.
The procedure of the experiment is outlined below. • (1) The first step is to prepare DNAs (P1F, P1K, and P1S), the first one having the entire length of the promoter region of Per1 gene and the second and third ones having the partial length of the promoter region of Per1 gene, with the upstream side cut off. […] The subcultured cells are collected and dissolved 36 hours after transfection. • (4) The fourth step is to prepare a solution from the dissolved cells and measurement of the luminescence intensity by means of Dual Luciferase Assay System (from Promega). […]
FIG. 4C is a graph showing the results of luciferase assay. The abscissa (Relative Luciferase Activity) represents the intensity of luminescence in terms of relative value (%) compared with the intensity of luminescence assigned as 100 of the cultured cells incorporated with the entire length of the promoter region of Per1 gene.
“P1F” denotes the intensity of luminescence from cultured cells incorporated with the entire length of the promoter region of Per1 gene. “P1K” denotes the intensity of luminescence from cultured cells incorporated with the partial length of 3806 bases upstream from the transcription starting region of Per1 gene. “P1S” denotes the intensity of luminescence from cultured cells incorporated with the partial length of 2369 bases upstream from the transcription starting region of Per1 gene. “Vector” denotes the intensity of luminescence from cultured cells (control) incorporated with a blank vector. […] “Dex” and “EtOH” respectively denote the intensity of luminescence from a sample containing dexamethazone and a sample (control) containing ethanol. […]

| detection of dGRE and pGRE sequences by semi-quantitative RT-PCR after immunoprecipitation ([2]; FIG. 5B) | amount of dGRE and pGRE DNA amplified (%input) by quantitative real time RT-PCR after immunoprecipitation ([2]; FIG. 5C) | Compound | amount of expression of each clock gene (fold induction, PBS being 1) ([1]; one hour after corticosterone 10 mg/kg, FIG. 7B) | amount of expression of Per1 gene (fold induction, PBS being 1) versus dosage ([1]; one hour after corticosterone, dosage in mg/kg, FIG. 7A) | intensity of luminescence, P1FpM ([3]; P1F with GRE resembling sequence mutated in its downstream, FIG. 4D) | intensity of luminescence, P1FdM ([3]; P1F with GRE resembling sequence mutated in its upstream, FIG. 4D) | Relative Luciferase Activity (intensity of luminescence), P1K ([3]; P1K promoter (3806 bases upstream, two GRE resembling sequences), vs EtOH, FIG. 4C) | Relative Luciferase Activity (intensity of luminescence), P1S ([3]; P1S promoter (2369 bases upstream, one GRE resembling sequence), vs EtOH, FIG. 4C) |
| --- | --- | --- | --- | --- | --- | --- | --- | --- |
| – | – | C[C@]12C[C@H](O)[C@H]3[C@@H](CCC4=CC(=O)CC[C@@]43C)[C@@H]1CC[C@@H]2C(=O)CO [corticosterone] | increases the amount of expression of only Per1 gene among clock genes | increases as the dosage of corticosterone increases | – | – | – | – |
| the desired band was detected | greatly amplifies | C[C@@H]1C[C@H]2[C@@H]3CCC4=CC(=O)C=C[C@]4(C)[C@@]3(F)[C@@H](O)C[C@]2(C)[C@@]1(O)C(=O)CO [dexamethazone] | – | – | high intensity of luminescence | a little lower intensity of luminescence | high intensity of luminance | certain intensity of luminance |
